Laboratory results: the NIST ThermoML archive (doi:10.1016/j.fluid.2010.10.028)
± gives the expanded uncertainty stated by the source.

Assay: xn = mol fraction of the nth substance listed
Details: Liquid, Vibrating tube method

**Q.** What does the source list for `CC(C)=O` [acetone] + CCCCCCC?
**A.** mass density (387.31 K, 109790 kPa, x1 = 0.611): 737.58 ± 1.7 kg/m3; mass density (387.31 K, 114860 kPa, x1 = 0.611): 740.58 ± 1.7 kg/m3; mass density (387.31 K, 119850 kPa, x1 = 0.611): 743.43 ± 1.7 kg/m3; mass density (387.31 K, 124850 kPa, x1 = 0.611): 746.21 ± 1.7 kg/m3; mass density (387.31 K, 129830 kPa, x1 = 0.611): 748.89 ± 1.8 kg/m3; mass density (387.32 K, 1320 kPa, x1 = 0.801): 639.55 ± 1.2 kg/m3; mass density (387.32 K, 1540 kPa, x1 = 0.4): 654.4 ± 1.2 kg/m3; mass density (387.32 K, 1540 kPa, x1 = 0.8992): 654.4 ± 1.2 kg/m3; mass density (387.32 K, 9840 kPa, x1 = 0.801): 658.47 ± 1.2 kg/m3; mass density (387.32 K, 14970 kPa, x1 = 0.4): 681.93 ± 1.3 kg/m3; mass density (387.32 K, 14970 kPa, x1 = 0.8992): 681.93 ± 1.2 kg/m3; mass density (387.32 K, 24870 kPa, x1 = 0.611): 663.63 ± 1.3 kg/m3; mass density (387.32 K, 29860 kPa, x1 = 0.611): 670.27 ± 1.3 kg/m3; mass density (387.32 K, 34870 kPa, x1 = 0.611): 676.42 ± 1.3 kg/m3; mass density (387.32 K, 39850 kPa, x1 = 0.801): 702.19 ± 1.3 kg/m3; mass density (387.32 K, 39920 kPa, x1 = 0.4): 716.49 ± 1.3 kg/m3; mass density (387.32 K, 39920 kPa, x1 = 0.8992): 716.49 ± 1.3 kg/m3; mass density (387.32 K, 44860 kPa, x1 = 0.611): 687.46 ± 1.4 kg/m3; mass density (387.32 K, 49850 kPa, x1 = 0.801): 712.89 ± 1.4 kg/m3; mass density (387.32 K, 49880 kPa, x1 = 0.4): 727.19 ± 1.4 kg/m3; mass density (387.32 K, 49880 kPa, x1 = 0.8992): 727.19 ± 1.4 kg/m3; mass density (387.32 K, 54850 kPa, x1 = 0.801): 717.78 ± 1.4 kg/m3; mass density (387.32 K, 59840 kPa, x1 = 0.611): 701.71 ± 1.4 kg/m3; mass density (387.32 K, 59850 kPa, x1 = 0.4): 736.82 ± 1.4 kg/m3; mass density (387.32 K, 59850 kPa, x1 = 0.801): 722.41 ± 1.4 kg/m3; mass density (387.32 K, 59850 kPa, x1 = 0.8992): 736.82 ± 1.4 kg/m3; mass density (387.32 K, 64820 kPa, x1 = 0.801): 726.8 ± 1.4 kg/m3; mass density (387.32 K, 64830 kPa, x1 = 0.4): 741.3 ± 1.4 kg/m3; mass density (387.32 K, 64830 kPa, x1 = 0.8992): 741.3 ± 1.4 kg/m3; mass density (387.32 K, 69930 kPa, x1 = 0.611): 710.16 ± 1.5 kg/m3; mass density (387.32 K, 74800 kPa, x1 = 0.4): 749.67 ± 1.5 kg/m3; mass density (387.32 K, 74800 kPa, x1 = 0.8992): 749.67 ± 1.4 kg/m3; mass density (387.32 K, 74910 kPa, x1 = 0.611): 714.05 ± 1.5 kg/m3; mass density (387.32 K, 74910 kPa, x1 = 0.801): 735.15 ± 1.5 kg/m3; mass density (387.32 K, 79790 kPa, x1 = 0.4): 753.62 ± 1.5 kg/m3; mass density (387.32 K, 79790 kPa, x1 = 0.8992): 753.62 ± 1.4 kg/m3; mass density (387.32 K, 79900 kPa, x1 = 0.611): 717.8 ± 1.5 kg/m3; mass density (387.32 K, 84760 kPa, x1 = 0.4): 757.4 ± 1.5 kg/m3; mass density (387.32 K, 84760 kPa, x1 = 0.8992): 757.4 ± 1.5 kg/m3; mass density (387.32 K, 89750 kPa, x1 = 0.4): 761.05 ± 1.5 kg/m3; mass density (387.32 K, 89750 kPa, x1 = 0.8992): 761.05 ± 1.5 kg/m3; mass density (387.32 K, 89870 kPa, x1 = 0.611): 724.87 ± 1.6 kg/m3; mass density (387.32 K, 94730 kPa, x1 = 0.4): 764.59 ± 1.5 kg/m3; mass density (387.32 K, 94730 kPa, x1 = 0.8992): 764.59 ± 1.5 kg/m3; mass density (387.32 K, 94840 kPa, x1 = 0.801): 749.8 ± 1.5 kg/m3; mass density (387.32 K, 94850 kPa, x1 = 0.611): 728.19 ± 1.6 kg/m3; mass density (387.32 K, 99700 kPa, x1 = 0.4): 768.01 ± 1.5 kg/m3; mass density (387.32 K, 99700 kPa, x1 = 0.8992): 768.01 ± 1.5 kg/m3; mass density (387.32 K, 99840 kPa, x1 = 0.611): 731.42 ± 1.6 kg/m3; mass density (387.32 K, 104670 kPa, x1 = 0.4): 771.32 ± 1.6 kg/m3; mass density (387.32 K, 104670 kPa, x1 = 0.8992): 771.32 ± 1.5 kg/m3; mass density (387.32 K, 104810 kPa, x1 = 0.611): 734.54 ± 1.6 kg/m3; mass density (387.32 K, 104810 kPa, x1 = 0.801): 756.41 ± 1.6 kg/m3; mass density (387.32 K, 109640 kPa, x1 = 0.4): 774.53 ± 1.6 kg/m3; mass density (387.32 K, 109640 kPa, x1 = 0.8992): 774.53 ± 1.6 kg/m3; mass density (387.32 K, 109780 kPa, x1 = 0.801): 759.56 ± 1.6 kg/m3; mass density (387.32 K, 114600 kPa, x1 = 0.4): 777.64 ± 1.6 kg/m3; mass density (387.32 K, 114600 kPa, x1 = 0.8992): 777.64 ± 1.6 kg/m3; mass density (387.32 K, 119580 kPa, x1 = 0.4): 780.68 ± 1.6 kg/m3; mass density (387.32 K, 119580 kPa, x1 = 0.8992): 780.68 ± 1.6 kg/m3; mass density (387.32 K, 119830 kPa, x1 = 0.801): 765.63 ± 1.6 kg/m3; mass density (387.32 K, 124530 kPa, x1 = 0.4): 783.61 ± 1.6 kg/m3; mass density (387.32 K, 124530 kPa, x1 = 0.8992): 783.61 ± 1.6 kg/m3; mass density (387.32 K, 129840 kPa, x1 = 0.4): 786.68 ± 1.6 kg/m3; mass density (387.32 K, 129840 kPa, x1 = 0.8992): 786.68 ± 1.6 kg/m3; mass density (387.33 K, 1300 kPa, x1 = 0.7024): 628.97 ± 1.2 kg/m3; mass density (387.33 K, 4820 kPa, x1 = 0.7024): 637.48 ± 1.2 kg/m3; mass density (387.33 K, 4860 kPa, x1 = 0.492): 621.33 ± 1.2 kg/m3; mass density (387.33 K, 4860 kPa, x1 = 0.801): 648.03 ± 1.2 kg/m3; mass density (387.33 K, 5010 kPa, x1 = 0.4): 662.6 ± 1.2 kg/m3; mass density (387.33 K, 5010 kPa, x1 = 0.8992): 662.6 ± 1.2 kg/m3; mass density (387.33 K, 9820 kPa, x1 = 0.7024): 647.9 ± 1.2 kg/m3; mass density (387.33 K, 9850 kPa, x1 = 0.492): 631.47 ± 1.2 kg/m3; mass density (387.33 K, 10000 kPa, x1 = 0.4): 672.89 ± 1.2 kg/m3; mass density (387.33 K, 10000 kPa, x1 = 0.8992): 672.89 ± 1.2 kg/m3; mass density (387.33 K, 14850 kPa, x1 = 0.492): 640.29 ± 1.2 kg/m3; mass density (387.33 K, 14860 kPa, x1 = 0.801): 667.65 ± 1.2 kg/m3; mass density (387.33 K, 19810 kPa, x1 = 0.7024): 665.07 ± 1.3 kg/m3; mass density (387.33 K, 19860 kPa, x1 = 0.801): 675.81 ± 1.3 kg/m3; mass density (387.33 K, 19960 kPa, x1 = 0.4): 690.05 ± 1.3 kg/m3; mass density (387.33 K, 19960 kPa, x1 = 0.8992): 690.05 ± 1.3 kg/m3; mass density (387.33 K, 24860 kPa, x1 = 0.801): 683.23 ± 1.3 kg/m3; mass density (387.33 K, 24940 kPa, x1 = 0.4): 697.46 ± 1.3 kg/m3; mass density (387.33 K, 24940 kPa, x1 = 0.8992): 697.46 ± 1.3 kg/m3; mass density (387.33 K, 29820 kPa, x1 = 0.7024): 679.2 ± 1.3 kg/m3; mass density (387.33 K, 29830 kPa, x1 = 0.801): 690 ± 1.3 kg/m3; mass density (387.33 K, 29940 kPa, x1 = 0.4): 704.27 ± 1.3 kg/m3; mass density (387.33 K, 29940 kPa, x1 = 0.8992): 704.27 ± 1.3 kg/m3; mass density (387.33 K, 34860 kPa, x1 = 0.801): 696.35 ± 1.3 kg/m3; mass density (387.33 K, 34930 kPa, x1 = 0.4): 710.58 ± 1.3 kg/m3; mass density (387.33 K, 34930 kPa, x1 = 0.8992): 710.58 ± 1.3 kg/m3
